The MIC is the lowest concentration that inhibits growth of the organism.

Converted amounts (≈) assume the structure as drawn. A value given as a limit tells only on which side of the number the result lay.

This is an account of results in ChEMBL document CHEMBL4706519, “Evaluation of N-phenyl-2-aminothiazoles for treatment of multi-drug resistant and intracellular Staphylococcus aureus infections” (Eur J Med Chem, 2020).

Type in all cases: functional
Holding throughout (conditions): time 18-20 hrs

One test has as its system Staphylococcus aureus. Kind of test: Antibacterial activity against methicillin-resistant Staphylococcus aureus USA300 NRS384 assessed as inhibition of bacterial growth measured after 18 to 20 hrs by broth microdilution method. In general terms: In broth dilution the organism is exposed to a series of concentrations in liquid medium.
In test [1] the test system is Escherichia coli. Put plainly: Antibacterial activity against wild type Escherichia coli BW25113 assessed as inhibition of bacterial growth measured after 18 to 20 hrs by broth microdilution method.
Test [2] relates to Escherichia coli. Kind of test: Antibacterial activity against Escherichia coli JW55031 harboring toIC efflux mutant assessed as inhibition of bacterial growth measured after 18 to 20 hrs by broth microdilution method.

Take `C/C(=N\NC(N)=S)c1ccc(Nc2nc(-c3ccc(Cl)cc3)cs2)cc1`: the minimum inhibitory concentration (MIC) in the test on Staphylococcus aureus is 32 µg/mL (≈ 79.6 µM); with Escherichia coli [1], more than 64 µg/mL; with Escherichia coli [2], 64 µg/mL (≈ 159 µM).

For the compound `C/C(=N\NC(N)=O)c1ccc(Nc2nc(-c3ccc(Cl)cc3)cs2)cc1`, the MIC in the test on Staphylococcus aureus, in the test on Escherichia coli [1] and with Escherichia coli [2] was more than 64 µg/mL each time.

Regarding `CC(=O)c1ccc(Nc2nc(-c3ccccc3)cs2)cc1`, the MIC in the test with Staphylococcus aureus, in the test on Escherichia coli [1] and with Escherichia coli [2] was more than 64 µg/mL throughout.

For `C/C(=N\NC(N)=O)c1ccc(Nc2nc(-c3ccc(Br)cc3)cs2)cc1`, the MIC in the test on Staphylococcus aureus, with Escherichia coli [1] and with Escherichia coli [2] was more than 64 µg/mL each time.

`C/C(=N\NC(N)=O)c1ccc(Nc2nc(-c3ccc(C)cc3)cs2)cc1`: the MIC was 32 µg/mL (≈ 87.6 µM) in the test on Staphylococcus aureus, more than 64 µg/mL in the test on Escherichia coli [1] and 32 µg/mL (≈ 87.6 µM) with Escherichia coli [2].

With `CC(=O)c1ccc(Nc2nc(-c3ccc(C)cc3)cs2)cc1`, the MIC in the test with Staphylococcus aureus was more than 64 µg/mL; in the test with Escherichia coli [1] it was more than 64 µg/mL; in the test on Escherichia coli [2], 64 µg/mL (≈ 208 µM).

For `C/C(=N\NC(N)=S)c1ccc(Nc2nc(-c3ccccc3)cs2)cc1`, the MIC in the test with Staphylococcus aureus, in the test on Escherichia coli [1] and in the test on Escherichia coli [2] was more than 64 µg/mL in each case.

Take `CC(=O)c1ccc(Nc2nc(-c3ccc(Cl)cc3)cs2)cc1`: the MIC in the test on Staphylococcus aureus, in the test on Escherichia coli [1] and in the test on Escherichia coli [2] was more than 64 µg/mL in each case.

With `C/C(=N\NC(N)=O)c1ccc(Nc2nc(-c3ccccc3)cs2)cc1`, the MIC with Staphylococcus aureus, with Escherichia coli [1] and in the test on Escherichia coli [2] was more than 64 µg/mL each time.

For the compound `CN[C@@H]1[C@@H](O)[C@@H](O[C@@H]2[C@@H](O)[C@H](O[C@H]3O[C@H]([C@@H](C)N)CC[C@H]3N)[C@@H](N)C[C@H]2N)OC[C@]1(C)O` [GENTAMICIN C2], the MIC in the test with Escherichia coli [1] and in the test with Escherichia coli [2] was 0.25 µg/mL (≈ 0.539 µM) each time.

In the case of `CC(=O)c1ccc(Nc2nc(-c3ccc(Br)cc3)cs2)cc1`, the MIC in the test on Staphylococcus aureus, in the test with Escherichia coli [1] and in the test with Escherichia coli [2] was more than 64 µg/mL throughout.

Consider `COc1ccc(-c2csc(Nc3ccc(/C(C)=N/NC(N)=S)cc3)n2)cc1`, for which the MIC in the test with Staphylococcus aureus, in the test with Escherichia coli [1] and in the test with Escherichia coli [2] was more than 64 µg/mL each time.

For the compound `COc1ccc(-c2csc(Nc3ccc(/C(C)=N/NC(=N)N)cc3)n2)cc1`, the MIC with Staphylococcus aureus amounted to 32 µg/mL (≈ 84.1 µM); in the test with Escherichia coli [1], 4 µg/mL (≈ 10.5 µM); in the test with Escherichia coli [2] it was 2 µg/mL (≈ 5.26 µM).

`C/C(=N\NC(=N)N)c1ccc(Nc2nc(-c3ccc(Br)cc3)cs2)cc1`: the MIC in the test on Staphylococcus aureus is 16 µg/mL (≈ 37.3 µM); in the test with Escherichia coli [1] it was 4 µg/mL (≈ 9.32 µM); in the test with Escherichia coli [2], 2 µg/mL (≈ 4.66 µM).

For the compound `COc1ccc(-c2csc(Nc3ccc(C(C)=O)cc3)n2)cc1`, the MIC in the test with Staphylococcus aureus, in the test with Escherichia coli [1] and with Escherichia coli [2] was more than 64 µg/mL each time.

Consider `C/C(=N\NC(N)=S)c1ccc(Nc2nc(-c3ccc(C)cc3)cs2)cc1`, for which the MIC in the test on Staphylococcus aureus, with Escherichia coli [1] and in the test with Escherichia coli [2] was more than 64 µg/mL throughout.

For `COc1ccc(-c2csc(Nc3ccc(/C(C)=N/NC(N)=O)cc3)n2)cc1`, the MIC in the test with Staphylococcus aureus, with Escherichia coli [1] and in the test on Escherichia coli [2] was more than 64 µg/mL throughout.

Regarding `C/C(=N\NC(N)=S)c1ccc(Nc2nc(-c3ccc(Br)cc3)cs2)cc1`, the MIC in the test on Staphylococcus aureus, in the test with Escherichia coli [1] and in the test with Escherichia coli [2] was more than 64 µg/mL in each case.
